In patent publication US20200323950A1, “ANTIBACTERIAL PEPTIDES AND COMBINATIONS FOR CO-THERAPY” (priority 2017, published 2020):
Values joined by “and” are separate entries in the source; they are usually repeats but may differ in a detail not shown here. Equal values may be shown once. *1 amine or outer side, *2 acyl side, *3 side chain or, on linkers, in order; H or OH if unused. Where a SMILES comes first, the peptide text is derived from it. Bridges are numbered along the chain shown (N, C = ends). Roman numbers before positions name the chains, in order. Where no end group is shown, it is not given here. [ ]: non-standard residue; d: D form. The star is where a group is joined. X2 = O=C1NC(=O)C(SC[C@@H](CO)N[*:2])=C1SC[C@@H](CO)N[*:1]; BMH = O=C1CC([*:1])C(=O)N1CCCCCCN1C(=O)CC([*:2])C1=O; Maleimide(3,4-diyl) = O=C1NC(=O)C([*:2])=C1[*:1]; pXylylene = c1cc(C[*:2])ccc1C[*:1]; aThr = C[C@H](O)[C@H](N)C(=O)O; Ac6c = NC1(C(=O)O)CCCCC1; X1 = C(=C\C[*:2])/C[*:1]; Dab = NCC[C@H](N)C(=O)O; Nva = CCC[C@H](N)C(=O)O; NHNH2 = NN*

Key:
A. baumannii ATCC 19606 = assay: Antibacterial assay (MIC); type: cell-based; details: A. baumannii ATCC 19606, MHB, 37° C.
Protocol: (§1) Antibacterial assay. Antibacterial assays are undertaken to determine the minimal inhibitory concentrations (MIC) as described previouslyl^6.
(§2) Antibacterial activity. Each C-terminal modified PrAMP DTM-linked tetramer is assayed against nosocomial Gram-negative bacteria, including E. coli ATCC 29222, K. pneumoniae ATCC 13883, A. baumannii ATCC 19606 and P. aeruginosa ATCC 47085.

E. coli ATCC 29222 = assay: Antibacterial assay (MIC); type: cell-based; details: E. coli ATCC 29222, MHB, 37° C.
Protocol: as §1, §2

K. pneumoniae ATCC 13883 = assay: Antibacterial assay (MIC); type: cell-based; details: K. pneumoniae ATCC 13883, MHB, 37° C.
Protocol: as §1, §2

P. aeruginosa ATCC 47085 = assay: Antibacterial assay (MIC); type: cell-based; details: P. aeruginosa ATCC 47085, MHB, 37° C.
Protocol: as §1, §2

E. coli = assay: Synergy results for co-administration of A3-APO (ARV-1501); type: cell-based; details: antibiotic co-administered with A3-APO (ARV-1501)
H. influenzae = assay: as above; type: cell-based; details: antibiotic co-administered with A3-APO (ARV-1501)
[1] = system: multidrug-resistant Klebsiella pneumoniae K97/09; details: K. pneumoniae K97/09, compound alone
[2] = system: multidrug-resistant Acinetobacter baumannii BAA-1605; details: A. baumannii BAA-1605, compound alone
[3] = system: Klebsiella pneumoniae K97/09; assay: Checkerboard synergy assay (FIC index); type: cell-based; details: K. pneumoniae K97/09
Protocol: In vitro activity and synergy. Minimal inhibitory concentration (MIC) assays were performed using sterile 96-well polypropylene plates in a final volume of […]. Briefly, 50 μL of midlogarithmic phase bacterial cultures were diluted to 5×10^5 CFU/mL in Mueller-Hinton broth (MHB) and then added to 50 μL of the serially diluted antibiotic. The highest A3-APO and other test compound concentration evaluated was 256 mg/L. Cultures were incubated at 37° C. for 16-20 h without shaking. MICs were identified as the lowest antimicrobial concentrations at which turbidity was not observed. Antimicrobial synergy was determined by evaluating the fractional inhibitory concentration (FIC) index and was characterized by a conventional checkerboard assay (Fernandez-Cuenca et al., 2003). Bacteria grown to mid-logarithmic phase in MHB were pre-incubated with serially diluted concentrations of peptides such as A3-APO, and the antimicrobial controls, imipenem, colistin or meropenem.
The sum of the FICs (Σ FIC) was calculated with the equation Σ FIC=FICA+FICB=(CA/MICA)+(CB/MICB), where MICA and MICB are the MICs of antimicrobial A and B alone, respectively, and CA and CB are the concentrations of the drugs when combined, respectively. Synergy was defined as a Σ FICs≤0.5 and additive activity was defined as a Σ FICs>0.5≤1.0.

[4] = system: Acinetobacter baumannii BAA-1605; type: cell-based; details: A. baumannii BAA-1605
Protocol: In vitro activity and synergy. Minimal inhibitory concentration (MIC) assays were performed using sterile 96-well polypropylene plates in a final volume of 100 mL. Briefly, 50 μL of midlogarithmic phase bacterial cultures were diluted to 5×10^5 CFU/mL in Mueller-Hinton broth (MHB) and then added to 50 μL of the serially diluted antibiotic. […] MICs were identified as the lowest antimicrobial concentrations at which turbidity was not observed. Antimicrobial synergy was determined by evaluating the fractional inhibitory concentration (FIC) index and was characterized by a conventional checkerboard assay (Fernandez-Cuenca et al., 2003).

K. pneumoniae = assay: Synergy results for co-administration of A3-APO (ARV-1501); type: cell-based
Protocol: Restoring antibiotic sensitivity to resistant bacteria. A colistin-resistant, carbapenem-resistant strain of K. pneumonia (K97/09) from a clinical isolate was used to test the effect of A3-APO treatment on antibiotic resistance. An in vitro assay measuring visible bacterial growth in the presence of A3-APO and imipenem or colistin was performed.
Synergy Results for Co-administration of A3-APO (ARV-1501)

K. pneumoniae K97/09 [5] = assay: Bacteremia Synergy Assay 1 (mouse systemic infection); type: in vivo; details: 10 mg/kg sc (Group 4), monotherapy
Protocol: (§3) In vivo Studies. Animals. Assays 1-2. NMRI (Naval Medical Research Institute) BR or CD-1 mice (Toxi-Coop Zrt, Budapest, Hungary) were housed in plastic type 2 cages, 3-5 mice per cage, on softwood granules as bedding. The room was kept between 21° C. and 25° C. with 12 h light:12 h dark cycles. The animals had free access to tap water and pelleted rodent food. Upon completion of the experiments, surviving mice were euthanized by diethyl ether inhalation. Animals were maintained and handled in accordance with the recommendations of the Guidelines for the Care and Use of Laboratory Animals, and the protocols were approved by the Animal Care Committee of Semmelweis University. The planned 15 treatment groups of mice were divided roughly equally into two assays with 8 and 7 treatment groups and untreated controls in each assay for safe and humane handling of large numbers of mice.
(§4) Infection models. NMRI mice weighing approximately 20 g (4 weeks old) were infected by intraperitoneal (ip) injection of 4×10^8 CFU/g K. pneumoniae K97/09. Mice were randomly allocated to 8 and […] groups (5 mice per group).
Bacteremia Synergy Assay 1.
Group 1: phosphate buffered saline (PBS) subcutaneously (sc) 1 h after infection. Group 2: imipenem 30 mg/kg sc at 2, 14 and 26 h after infection. […]
Survival was recorded hourly 24-36 h after infection. […]

K. pneumoniae K97/09 [6] = assay: Bacteremia Synergy Assay 2 (mouse systemic infection); type: in vivo
Protocol: as §3, §4
Bacteremia SYNERGY ASSAY 2.
Group 1: PBS sc 1 h after infection. Group 2: Colistin 1 mg/kg sc at 2 and 13 h after infection. Group 3: A3-APO 1 mg/kg im 1 and 12 h after infection. Group 4: A3-APO 1 mg/kg im 1 and 12 h after infection, colistin 1 mg/kg sc at 2 and 13 h after infection. […]

| Compound | Antibacterial activity, MIC (A. baumannii ATCC 19606) | Antibacterial activity, MIC (E. coli ATCC 29222) | Antibacterial activity, MIC (K. pneumoniae ATCC 13883) | Antibacterial activity, MIC (P. aeruginosa ATCC 47085) | also measured |
| --- | --- | --- | --- | --- | --- |
| I: [Ac6c]RPDKPRPYLPRPRPPRPVR[Dab] / II: [Ac6c]RPDKPRPYLPRPRPPRPVR[Dab] / III: [Ac6c]RPDKPRPYLPRPRPPRPVR / IV: [Ac6c]RPDKPRPYLPRPRPPRPVR (amide I:21-III:C, II:21-IV:C; linker I:C-II:C via X2) [tetramer-DTM-ol] | 11.61 ± 1.44 µM | 3.67 ± 0.25 µM | 2.20 ± 0.01 µM | 1.86 ± 0.07 µM |  |
| I: [Ac6c]RPDKPRPYLPRPRPPRPVR[Dab]C-NHNH2 / II: [Ac6c]RPDKPRPYLPRPRPPRPVR[Dab]C-NHNH2 / III: [Ac6c]RPDKPRPYLPRPRPPRPVR / IV: [Ac6c]RPDKPRPYLPRPRPPRPVR (amide I:21-III:C, II:21-IV:C; linker I:22-II:22 via X1) [tetramer-butene-NHNH2] | 1.89 ± 0.63 µM | 0.94 ± 0.04 µM | 0.81 ± 0.02 µM | 0.77 ± 0.02 µM |  |
| I: H-[Ac6c]RPDKPRPYLPRPRPPRPVR[Dab]-NHNH2 / II: H-[Ac6c]RPDKPRPYLPRPRPPRPVR (amide I:21-II:C) [dimer-NHNH2] | 5.31 ± 0.73 µM | 2.99 ± 1.00 µM | 3.63 ± 0.02 µM | 3.01 ± 0.18 µM |  |
| CC1(C)S[C@@H]2[C@H](NC(=O)[C@H](N)c3ccc(O)cc3)C(=O)N2[C@H]1C(=O)O [amoxicillin] |  |  |  |  | Outcome (E. coli): reversal of TEM-1 related; Outcome (H. influenzae): MIC lowered with priming |
| I: H-[Ac6c]RPDKPRPYLPRPRPPRPVR[Dab]-NH2 / II: H-[Ac6c]RPDKPRPYLPRPRPPRPVR (amide I:21-II:C) [A3-APO, (H-Chex-Arg-Pro-Asp-Lys-Pro-Arg-Pro-Tyr-Leu-Pro-Arg-Pro-Arg-Pro-Pro-Arg-Pro-Val-Arg)2-Dab] | 8.00 ± 1.09 µM | 2.58 ± 1.14 µM | 1.44 ± 0.12 µM | 3.13 ± 0.05 µM | MIC [1]: 32 to 64 µg/mL and 32 µg/mL; MIC [2]: 32 µg/mL |
| CCC[C@H](NC(=O)[C@H](CCC(=O)O)NC(=O)[C@@H](N)[C@H](C)O)C(=O)N[C@H](C(=O)N[C@@H](C)C(=O)N[C@@H](CC(C)C)C(=O)N[C@@H](CO)C(=O)N[C@@H](CCCNC(=N)N)C(=O)NC1(C(N)=O)CCCCC1)C(C)C [Allo-aca] (H-[aThr]E[Nva]VALSR[Ac6c]-NH2; N-terminus and C-terminus assumed) |  |  |  |  | improvement in the MIC values when added together with imipenem or colistin [3]: failed to exert any improvement; improvement in the MIC values when added together with imipenem or colistin [4]: failed to exert any improvement |
| I: [Ac6c]RPDKPRPYLPRPRPPRPVR[Dab]C-NHNH2 / II: [Ac6c]RPDKPRPYLPRPRPPRPVR[Dab]C-NHNH2 / III: [Ac6c]RPDKPRPYLPRPRPPRPVR / IV: [Ac6c]RPDKPRPYLPRPRPPRPVR (amide I:21-III:C, II:21-IV:C; linker I:22-II:22 via pXylylene) [tetramer-xylene-NHNH2] | 12.70 ± 0.96 µM | 6.24 ± 0.53 µM | 4.49 ± 0.56 µM | 1.51 ± 0.33 µM |  |
| O=C(N[C@H](CO)[C@H](O)c1ccc([N+](=O)[O-])cc1)C(Cl)Cl [chloramphenicol] |  |  |  |  | Outcome (E. coli): MIC lowered with priming; Outcome (H. influenzae): MIC lowered with priming; Outcome (K. pneumoniae; antibiotic co-administered with A3-APO (ARV-1501)): MIC lowered with priming |
| I: H-[Ac6c]RPDKPRPYLPRPRPPRPVR[Dab]C-NH2 / II: H-[Ac6c]RPDKPRPYLPRPRPPRPVR[Dab]C-NH2 / III: H-[Ac6c]RPDKPRPYLPRPRPPRPVR / IV: H-[Ac6c]RPDKPRPYLPRPRPPRPVR (amide I:21-III:C, II:21-IV:C; linker I:22-II:22 via Maleimide(3,4-diyl)) [tetramer-DTM-NH2] | 13.29 ± 0.10 µM | 2.96 ± 0.99 µM | 2.33 ± 0.01 µM | 2.05 ± 0.08 µM |  |
| I: [Ac6c]RPDKPRPYLPRPRPPRPVR[Dab]C-NHNH2 / II: [Ac6c]RPDKPRPYLPRPRPPRPVR[Dab]C-NHNH2 / III: [Ac6c]RPDKPRPYLPRPRPPRPVR / IV: [Ac6c]RPDKPRPYLPRPRPPRPVR (amide I:21-III:C, II:21-IV:C; linker I:22-II:22 via BMH) [tetramer-bismal-NHNH2] | 10.35 ± 0.22 µM | 3.93 ± 0.04 µM | 3.18 ± 0.03 µM | 1.62 ± 0.11 µM |  |
| colistin |  |  |  |  | MIC of the antibiotic before co-administration (decrease from) (K. pneumoniae; antibiotic without A3-APO): > 64; MIC of the antibiotic on co-administration (decrease to) (K. pneumoniae; co-administered with A3-APO (ARV-1501)): 1; survival (K. pneumoniae K97/09 [5]): 60%; reduction of the bacterial burden (K. pneumoniae K97/09 [6]; colistin 1 mg/kg sc (Group 2), after 6 h): < 1 log 10 unit; survival at 36 h (K. pneumoniae K97/09 [6]; colistin 1 mg/kg sc twice (Group 2), monotherapy): 40%; MIC [1]: 64 µg/mL; MIC [2]: < 0.5 µg/mL |
